We go through two compounds from ChEMBL document CHEMBL2074038 (J Pharmacol Exp Ther, 2003).

The target of this data set is ATP-dependent translocase ABCB1 (Homo sapiens, UniProt P08183). The experiment in a line: TP_TRANSPORTER: transepithelial transport in MDR1-expressing LLC-PK1 cells. Format: functional, cell-based. The following applies: pig.
Sequence of ATP-dependent translocase ABCB1 (P08183 whole entry): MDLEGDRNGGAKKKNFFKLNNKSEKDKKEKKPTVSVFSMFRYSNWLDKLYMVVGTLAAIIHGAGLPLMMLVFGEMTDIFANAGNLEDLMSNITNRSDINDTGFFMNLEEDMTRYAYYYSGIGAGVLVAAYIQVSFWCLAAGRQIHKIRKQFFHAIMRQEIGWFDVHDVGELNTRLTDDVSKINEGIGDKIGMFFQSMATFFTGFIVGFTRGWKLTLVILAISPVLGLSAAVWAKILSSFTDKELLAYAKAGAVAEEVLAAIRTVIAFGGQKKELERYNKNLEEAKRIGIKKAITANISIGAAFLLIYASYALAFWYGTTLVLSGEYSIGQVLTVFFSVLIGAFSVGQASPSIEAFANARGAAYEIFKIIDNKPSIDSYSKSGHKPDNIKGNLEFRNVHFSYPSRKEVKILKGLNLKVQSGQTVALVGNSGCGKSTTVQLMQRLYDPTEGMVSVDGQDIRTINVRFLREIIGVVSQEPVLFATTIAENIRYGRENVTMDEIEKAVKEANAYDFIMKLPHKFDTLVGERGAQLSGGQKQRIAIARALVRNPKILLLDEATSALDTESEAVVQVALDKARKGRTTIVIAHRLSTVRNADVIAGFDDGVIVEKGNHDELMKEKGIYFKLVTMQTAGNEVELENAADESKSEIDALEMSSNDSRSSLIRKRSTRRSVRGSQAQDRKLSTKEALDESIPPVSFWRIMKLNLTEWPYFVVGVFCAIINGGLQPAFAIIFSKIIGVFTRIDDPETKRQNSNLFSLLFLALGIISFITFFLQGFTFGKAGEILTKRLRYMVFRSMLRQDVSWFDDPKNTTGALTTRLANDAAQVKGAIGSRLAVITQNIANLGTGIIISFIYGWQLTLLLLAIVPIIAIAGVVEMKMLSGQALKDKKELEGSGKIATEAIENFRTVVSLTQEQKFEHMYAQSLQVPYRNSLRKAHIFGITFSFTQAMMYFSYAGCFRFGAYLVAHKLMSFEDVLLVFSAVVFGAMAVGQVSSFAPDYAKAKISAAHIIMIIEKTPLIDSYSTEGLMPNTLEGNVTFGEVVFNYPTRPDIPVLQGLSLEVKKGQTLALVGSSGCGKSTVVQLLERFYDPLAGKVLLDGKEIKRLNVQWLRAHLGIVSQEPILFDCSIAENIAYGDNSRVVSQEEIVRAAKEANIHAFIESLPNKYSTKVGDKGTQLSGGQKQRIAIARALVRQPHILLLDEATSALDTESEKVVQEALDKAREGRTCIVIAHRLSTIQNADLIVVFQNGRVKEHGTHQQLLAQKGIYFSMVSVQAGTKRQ

On to `CCn1nc(Cc2ccccc2)cc1C1CCN(Cc2ccc(C3(N(C)[C@@H](C(=O)O)C(C)C)CCCC3)cc2F)CC1`, for which the Activity entry is “substrate [+]”.
On to `CC[C@]1(O)C[C@@H]2CN(CCc3c([nH]c4ccccc34)[C@@](C(=O)OC)(c3cc4c(cc3OC)N(C)[C@H]3[C@@](O)(C(=O)OC)[C@H](OC(C)=O)[C@]5(CC)C=CCN6CC[C@]43[C@@H]65)C2)C1` [VINBLASTINE], for which the Activity result was “substrate [+]”.
